Our source for the IC50 values is patent US20250145599A1, “CERTAIN CHEMICAL ENTITIES, COMPOSITIONS, AND METHODS” (Retune Pharma Inc., priority 2022, published 2025).

In one assay the target is IGF-1R (Homo sapiens, UniProt P08069). As to the kind of experiment: IGF-1R biochemical assay (ADP-Glo). As to conditions: read-out: IGF1R IC50. On the procedure: The inhibitory activity against IGF-1R was measured using ADP-Glo assay. The percent (%) inhibition at each concentration of compound is calculated based on and relative to the luminescence signal in the Max and Min control wells contained within each assay plate. The Max control wells contain enzyme and substrate as 0% inhibition, and the Min control wells only contain substrate without enzyme as 100% inhibition. The concentrations and % inhibition values for tested compounds are plotted and the concentration of compound required for 50% inhibition (IC50) is determined with a four-parameter logistic dose response equation.
IGF-1R, sequence (P08069 31-1367): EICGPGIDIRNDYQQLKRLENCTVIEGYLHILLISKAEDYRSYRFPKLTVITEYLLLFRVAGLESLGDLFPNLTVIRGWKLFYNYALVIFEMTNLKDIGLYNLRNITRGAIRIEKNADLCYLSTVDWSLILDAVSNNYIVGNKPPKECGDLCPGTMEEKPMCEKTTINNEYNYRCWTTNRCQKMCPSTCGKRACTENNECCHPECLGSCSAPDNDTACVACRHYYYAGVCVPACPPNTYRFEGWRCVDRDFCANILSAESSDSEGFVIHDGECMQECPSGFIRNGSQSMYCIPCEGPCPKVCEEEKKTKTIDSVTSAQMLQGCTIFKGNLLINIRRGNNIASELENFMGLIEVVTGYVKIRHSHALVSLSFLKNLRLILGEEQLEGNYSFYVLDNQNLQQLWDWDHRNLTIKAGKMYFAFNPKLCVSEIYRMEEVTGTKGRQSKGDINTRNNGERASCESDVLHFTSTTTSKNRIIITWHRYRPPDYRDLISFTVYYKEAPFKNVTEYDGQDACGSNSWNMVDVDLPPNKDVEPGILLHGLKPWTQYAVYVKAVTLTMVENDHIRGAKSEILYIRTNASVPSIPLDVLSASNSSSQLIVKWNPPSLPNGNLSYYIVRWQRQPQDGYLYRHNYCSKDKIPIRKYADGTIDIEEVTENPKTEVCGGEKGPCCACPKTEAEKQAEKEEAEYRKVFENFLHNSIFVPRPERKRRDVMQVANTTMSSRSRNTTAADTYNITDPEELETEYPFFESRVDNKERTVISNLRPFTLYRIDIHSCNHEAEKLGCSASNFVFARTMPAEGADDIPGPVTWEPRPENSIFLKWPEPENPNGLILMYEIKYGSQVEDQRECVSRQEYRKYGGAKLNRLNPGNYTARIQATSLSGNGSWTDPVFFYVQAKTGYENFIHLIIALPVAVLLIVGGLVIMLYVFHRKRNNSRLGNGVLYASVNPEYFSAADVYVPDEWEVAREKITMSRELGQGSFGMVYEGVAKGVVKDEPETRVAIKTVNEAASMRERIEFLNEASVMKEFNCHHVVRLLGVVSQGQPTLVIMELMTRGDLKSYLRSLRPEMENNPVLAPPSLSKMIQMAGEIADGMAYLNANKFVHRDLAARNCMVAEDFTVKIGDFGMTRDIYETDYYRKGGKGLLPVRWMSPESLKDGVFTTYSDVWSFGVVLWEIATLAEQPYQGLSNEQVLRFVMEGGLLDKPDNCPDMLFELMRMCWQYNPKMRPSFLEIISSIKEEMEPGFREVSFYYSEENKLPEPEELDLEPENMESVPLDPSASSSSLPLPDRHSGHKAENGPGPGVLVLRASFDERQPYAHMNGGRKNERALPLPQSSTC
Table 3 provides IC50 data of representative compounds against IGF-1R using ADP-Glo assay. The IC50 data are designated within the following ranges: A: ≤0.10 μM, B: >0.10 μM to ≤1 μM, C: >1 μM to ≤20 μM
Background: ADP-Glo first removes unused ATP, then detects ADP through luciferase.

The next assay deals with Ba/F3-TEL-IGF-1R cells. The experiment in a line: CellTiter-Glo luminescent cell viability assay. It counts as cell-based. As to conditions: cellular IC50, Ba/F3-TEL-IGF-1R cells. As to the method:
The CellTiter-Glo luminescent cell viability assay was used to determine the inhibitory activity of the compounds against IGF-1R in Ba/F3-TEL-IGF-1R cells. […] The IC50 data are designated within the following ranges: A: ≤1 μM, B: >1 μM to ≤10 μM, C: >10 μM to ≤20 μM
(In ATP-based viability assays light output follows the ATP content of the culture.)

As a reminder, the IC50 is the concentration that inhibits the measured activity by half.

On to `C[C@]1(O)C[C@@H](n2nc(-c3ccc4ccc(-c5ccccc5)nc4c3)c(C(N)=O)c2N)C1` [Example C005, 5-amino-1-((1s,3s)-3-hydroxy-3-methylcyclobutyl)-3-(2-phenylquinolin-7-yl)-1H-pyrazole-4-carboxamide], for which the 50% inhibitory concentration (IC50) was no more than 100 nM on IGF-1R and no more than 1000 nM in the assay with Ba/F3-TEL-IGF-1R cells.

Regarding `COc1cc(-c2ccccc2F)nc2c(F)c(-c3nn([C@H]4C[C@@](C)(O)C4)c(N)c3C(N)=O)ccc12` [Example C035, 5-amino-3-(8-fluoro-2-(2-fluorophenyl)-4-methoxyquinolin-7-yl)-1-((1s,3s)-3-hydroxy-3-methylcyclobutyl)-1H-pyrazole-4-carboxamide], the concentration for half-maximal inhibition (IC50) is no more than 100 nM on IGF-1R and no more than 1000 nM in the assay with Ba/F3-TEL-IGF-1R cells.

For the compound `NC(=O)c1c(-c2ccc3ccc(-c4ccccc4)nc3c2)nn([C@H]2C[C@H](CN3CCOCC3)C2)c1N` [Example C013, 5-amino-1-((1r,3r)-3-(morpholinomethyl)cyclobutyl)-3-(2-phenylquinolin-7-yl)-1H-pyrazole-4-carboxamide], the concentration for half-maximal inhibition (IC50) was no more than 100 nM on IGF-1R and no more than 1000 nM in the assay with Ba/F3-TEL-IGF-1R cells.

For `COc1c(F)c(-c2ccccc2F)nc2c(F)c(-c3nn([C@H]4C[C@@](C)(O)C4)c(N)c3C(N)=O)ccc12` [Example C061, 5-amino-3-(3,8-difluoro-2-(2-fluorophenyl)-4-methoxyquinolin-7-yl)-1-((1s,3s)-3-hydroxy-3-methylcyclobutyl)-1H-pyrazole-4-carboxamide], the IC50 is no more than 100 nM on IGF-1R and no more than 1000 nM in the assay on Ba/F3-TEL-IGF-1R cells.

Consider `COc1cc(-c2ccccc2F)nc2c(F)c(-c3nn([C@H]4C[C@](C)(O)C4)c(N)c3C(N)=O)ccc12` [Example C050, 5-amino-3-(8-fluoro-2-(2-fluorophenyl)-4-methoxyquinolin-7-yl)-1-((1r,3r)-3-hydroxy-3-methylcyclobutyl)-1H-pyrazole-4-carboxamide], for which the figures for the half-inhibitory concentration (IC50) at IGF-1R and in the assay with Ba/F3-TEL-IGF-1R cells were no more than 100 nM and no more than 1000 nM, respectively.

As to `COc1cc(-c2cccc(F)c2)nc2cc(-c3nn([C@H]4C[C@@](C)(O)C4)c(N)c3C(N)=O)ccc12` [Example C048, 5-amino-3-(2-(3-fluorophenyl)-4-methoxyquinolin-7-yl)-1-((1s,3s)-3-hydroxy-3-methylcyclobutyl)-1H-pyrazole-4-carboxamide], the values for the concentration for half-maximal inhibition (IC50) on IGF-1R and with Ba/F3-TEL-IGF-1R cells were no more than 100 nM and no more than 1000 nM, respectively.

Take `NC(=O)c1c(-c2ccc3ccc(-c4ccccc4)nc3c2)nn([C@H]2C[C@@H](CN3CCOCC3)C2)c1N` [Example C012, 5-amino-1-((1s,3s)-3-(morpholinomethyl)cyclobutyl)-3-(2-phenylquinolin-7-yl)-1H-pyrazole-4-carboxamide]: the IC50 on IGF-1R was no more than 100 nM; in the assay on Ba/F3-TEL-IGF-1R cells it was no more than 1000 nM.

Consider `COc1cc(-c2ccccc2)nc2c(F)c(-c3nn([C@H]4C[C@](C)(O)C4)c(N)c3C(N)=O)ccc12` [Example C045, 5-amino-3-(8-fluoro-4-methoxy-2-phenylquinolin-7-yl)-1-((lr,3r)-3-hydroxy-3-methylcyclobutyl)-1H-pyrazole-4-carboxamide], for which the values for the IC50 at IGF-1R and in the assay with Ba/F3-TEL-IGF-1R cells were no more than 100 nM and no more than 1000 nM, respectively.

In the case of `CCOc1cc(-c2ccccc2)nc2c(F)c(-c3nn([C@H]4C[C@@](C)(O)C4)c(N)c3C(N)=O)ccc12` [Example C033, 5-amino-3-(4-ethoxy-8-fluoro-2-phenylquinolin-7-yl)-1-((1s,3s)-3-hydroxy-3-methylcyclobutyl)-1H-pyrazole-4-carboxamide], the half-maximal inhibitory concentration (IC50) was no more than 100 nM on IGF-1R and no more than 1000 nM in the assay on Ba/F3-TEL-IGF-1R cells.

On to `COc1c(F)c(-c2ccccc2)nc2c(F)c(-c3nn([C@H]4C[C@@](C)(O)C4)c(N)c3C(N)=O)ccc12` [Example C062, 5-amino-3-(3,8-difluoro-4-methoxy-2-phenylquinolin-7-yl)-1-((1s,3s)-3-hydroxy-3-methylcyclobutyl)-1H-pyrazole-4-carboxamide], for which the values for the IC50 at IGF-1R and in the assay with Ba/F3-TEL-IGF-1R cells were no more than 100 nM and no more than 1000 nM, respectively.

Regarding `COc1cc(-c2ccccc2)nc2c(F)c(-c3nn([C@H]4C[C@@](C)(O)C4)c(N)c3C(N)=O)ccc12` [Example C034, 5-amino-3-(8-fluoro-4-methoxy-2-phenylquinolin-7-yl)-1-((1s,3s)-3-hydroxy-3-methylcyclobutyl)-1H-pyrazole-4-carboxamide], the IC50 is no more than 100 nM on IGF-1R and no more than 1000 nM in the assay on Ba/F3-TEL-IGF-1R cells.

As for `COc1cc(-c2ccccc2F)nc2cc(-c3nn([C@H]4C[C@@](C)(O)C4)c(N)c3C(N)=O)ccc12` [Example C046, 5-amino-3-(2-(2-fluorophenyl)-4-methoxyquinolin-7-yl)-1-((1s,3s)-3-hydroxy-3-methylcyclobutyl)-1H-pyrazole-4-carboxamide], the IC50 on IGF-1R is no more than 100 nM; in the assay on Ba/F3-TEL-IGF-1R cells, no more than 1000 nM.

As for `COc1c(F)c(-c2ccccc2F)nc2cc(-c3nn([C@H]4C[C@@](C)(O)C4)c(N)c3C(N)=O)ccc12` [Example C063, 5-amino-3-(3-fluoro-2-(2-fluorophenyl)-4-methoxyquinolin-7-yl)-1-((1s,3s)-3-hydroxy-3-methylcyclobutyl)-1H-pyrazole-4-carboxamide], the IC50 at IGF-1R was no more than 100 nM; in the assay on Ba/F3-TEL-IGF-1R cells it was no more than 1000 nM.

As to `COc1cc(-c2ccccc2)nc2cc(-c3nn([C@H]4C[C@@](C)(O)C4)c(N)c3C(N)=O)c(F)cc12` [Example C051, 5-amino-3-(6-fluoro-4-methoxy-2-phenylquinolin-7-yl)-1-((1s,3s)-3-hydroxy-3-methylcyclobutyl)-1H-pyrazole-4-carboxamide], the IC50 on IGF-1R is no more than 100 nM; with Ba/F3-TEL-IGF-1R cells it was no more than 1000 nM.

As to `C[C@]1(C(=O)O)C[C@H](n2nc(-c3ccc4ccc(-c5ccccc5)nc4c3)c(C(N)=O)c2N)C1` [Example C022, (1r,3r)-3-(5-amino-4-carbamoyl-3-(2-phenylquinolin-7-yl)-1H-pyrazol-1-yl)-1-methylcyclobutane-1-carboxylic acid], the half-maximal inhibitory concentration (IC50) at IGF-1R is 1000 to 20000 nM.

As to `C[C@]1(O)C[C@H](n2nc(-c3ccc4ccc(-c5ccccc5F)nc4c3)c(C(N)=O)c2N)C1` [Example C040, 5-amino-3-(2-(2-fluorophenyl)quinolin-7-yl)-1-((1r,3r)-3-hydroxy-3-methylcyclobutyl)-1H-pyrazole-4-carboxamide], the 50% inhibitory concentration (IC50) at IGF-1R was no more than 100 nM.

For the compound `C[C@]1(O)C[C@@H](n2nc(-c3ccc4ccc(-c5ccccc5Br)nc4c3)c(C(N)=O)c2N)C1` [Example C038, 5-amino-3-(2-(2-bromophenyl)quinolin-7-yl)-1-((ls,3s)-3-hydroxy-3-methylcyclobutyl)-1H-pyrazole-4-carboxamide], the IC50 at IGF-1R was no more than 100 nM.

For `C[C@]1(O)C[C@@H](n2nc(-c3ccc4ccc(-c5ccccc5F)nc4c3)c(C(N)=O)c2N)C1` [Example C037, 5-amino-3-(2-(2-fluorophenyl)quinolin-7-yl)-1-((1s,3s)-3-hydroxy-3-methylcyclobutyl)-1H-pyrazole-4-carboxamide], at IGF-1R, the IC50 was no more than 100 nM.

`NC(=O)c1c(-c2ccc3ccc(-c4ccccc4)nc3c2)nn(C2CC(F)(F)C2)c1N` [Example C030, 5-amino-1-(3,3-difluorocyclobutyl)-3-(2-phenylquinolin-7-yl)-1H-pyrazole-4-carboxamide]: the IC50 on IGF-1R lay within 100 to 1000 nM.

For `CN1CCN(C[C@H]2C[C@H](n3nc(-c4ccc5ccc(-c6ccccc6)nc5c4)c(C(N)=O)c3N)C2)CC1` [Example C021, 5-amino-1-((1r,3r)-3-((4-methylpiperazin-1-yl)methyl)cyclobutyl)-3-(2-phenylquinolin-7-yl)-1H-pyrazole-4-carboxamide], the half-maximal inhibitory concentration (IC50) at IGF-1R is no more than 100 nM.

For the compound `NC(=O)c1c(-c2ccc3ccc(-c4ccccc4)nc3c2)nn(C2COC2)c1N` [Example C029, 5-amino-1-(oxetan-3-yl)-3-(2-phenylquinolin-7-yl)-1H-pyrazole-4-carboxamide], the half-maximal inhibitory concentration (IC50) at IGF-1R was in the range of 1000 to 20000 nM.

Regarding `C[C@]1(O)C[C@@H](n2nc(-c3ccc4c(OC(F)F)cc(-c5ccccc5)nc4c3)c(C(N)=O)c2N)C1` [Example C053, 5-amino-3-(4-(difluoromethoxy)-2-phenylquinolin-7-yl)-1-((1s,3s)-3-hydroxy-3-methylcyclobutyl)-1H-pyrazole-4-carboxamide], the IC50 on IGF-1R is no more than 100 nM.

As to `CN1CCN(C2CC(n3nc(-c4ccc5ccc(-c6ccccc6)nc5c4)c(C(N)=O)c3N)C2)CC1` (centres unmarked) [Example C026, 5-amino-1-(3-(4-methylpiperazin-1-yl)cyclobutyl)-3-(2-phenylquinolin-7-yl)-1H-pyrazole-4-carboxamide], the half-maximal inhibitory concentration (IC50) on IGF-1R was no more than 100 nM.

Regarding `NC(=O)c1c(-c2ccc3ccc(-c4ccccc4)nc3c2)nn2c1NCC(C(N)=O)C2` (centres unmarked) [Example C031], the half-maximal inhibitory concentration (IC50) at IGF-1R was 1000 to 20000 nM.

In the case of `CN1CCC(n2nc(-c3ccc4ccc(-c5ccccc5)nc4c3)c(C(N)=O)c2N)CC1` [Example C007, 5-amino-1-(1-methylpiperidin-4-yl)-3-(2-phenylquinolin-7-yl)-1H-pyrazole-4-carboxamide], the IC50 on IGF-1R was 1000 to 20000 nM.

In the case of `CN1CCN(C[C@H]2C[C@@H](n3nc(-c4ccc5ccc(-c6ccccc6)nc5c4)c(C(N)=O)c3N)C2)CC1` [Example C019, 5-amino-1-((1s,3s)-3-((4-methylpiperazin-1-yl)methyl)cyclobutyl)-3-(2-phenylquinolin-7-yl)-1H-pyrazole-4-carboxamide], on IGF-1R, the IC50 lay within 100 to 1000 nM.

In the case of `C[C@]1(O)C[C@@H](n2nc(-c3ccc4ccc(-c5ccc(F)cc5)nc4c3)c(C(N)=O)c2N)C1` [Example C039, 5-amino-3-(2-(4-fluorophenyl)quinolin-7-yl)-1-((1s,3s)-3-hydroxy-3-methylcyclobutyl)-1H-pyrazole-4-carboxamide], the 50% inhibitory concentration (IC50) on IGF-1R is 100 to 1000 nM.
